Values quoted from earlier work as cited in US12569475B2, “Method for eradicating helicobacter pylori infection in patients regardless of body mass index” (RedHill Biopharma Ltd., priority 2020, dated 2026).
In brackets after ≈: the same amount, converted by molar mass. Structures can show the parent of a compound that is named as a salt. Where two headings read alike, the source gives them in different places.

Row | SMILES | solubility in chloroform (chloroform) | solubility in ethanol (ethanol) | solubility in methanol | solubility in water (water) | solubility in water (water at 25° C.)
1 | CO[C@H]1/C=C/O[C@@]2(C)Oc3c(C)c(O)c4c(c3C2=O)C2=NC3(CCN(CC(C)C)CC3)NC2=C(NC(=O)/C(C)=C\C=C\[C@H](C)[C@H](O)[C@@H](C)[C@@H](O)[C@@H](C)[C@H](OC(C)=O)[C@@H]1C)C4=O [Rifabutin, (9S,12E,14S,15R,16S,17R,18R,19R,20S,21S,22E,24Z)-6-16,18,20-tetrahydroxy-1′-isobutyl-14-methoxy-7,9,15,17,19,21,25-heptamethylspiro [9,4-(epoxypentadeca[1,11,13]trienimino)-2H-furo[2′,3′:7,8]naphth[1,2-d]imidazole-2,4′-piperidine]-5,10,26-(3H,9H)-trione-16-acetate] | soluble | sparingly soluble | soluble | 190 µg/mL (≈ 224 µM) | –
2 | COc1ccc2[nH]c([S+]([O-])Cc3ncc(C)c(OC)c3C)nc2c1 (racemic) [Omeprazole magnesium, 5-methoxy-2-[[(4-methoxy-3,5-dimethyl-2-pyridyl)methyl]sulfinyl]benzimidazole, (RS) magnesium salt (2:1)] | – | – | soluble | – | 250 µg/mL
